# Patent US20110054029A1, “WATER-SOLUBLE DIETARY FATTY ACIDS” (priority 2009, published 2011)
# Test system: Caco-2 cell monolayers
# Experiment: Permeability across Caco-2 cell monolayers
# Format: in vitro ADME
# Conditions: Caco-2 monolayers after exposure to test article, 37° C.
# Procedure: To test the permeability of dietary fatty acids across Caco-2 cell monolayers, Caco-2 cell monolayers are grown to confluence on collagen-coated, microporous, polycarbonate membranes in 12-well Costar Transwell® plates.
# The test article is the aqueous dietary fatty acids formulation, and the dosing concentration is 2 μM in the assay buffer (HBSSg) as in the previous example. Cell monolayers are dosed on the apical side (A-to-B) or basolateral side (B-to-A) and incubated at 37° C. with 5% CO2 in a humidified incubator. Samples are taken from the donor chamber at 120 minutes, and samples from the receiver chamber are collected at 60 and 120 minutes. Each determination is performed in duplicate. Lucifer yellow permeability is also measured for each monolayer after being subjected to the test article to ensure no damage is inflicted to the cell monolayers during the permeability experiment. Permeability of samples of atenolol, propranolol and digoxin are also measured to compare with the permeability of the dietary fatty acids sample. All samples are assayed for dietary fatty acids, or corresponding comparative compounds, by LC/MS/MS using electrospray ionization. The apparent permeability (Papp) and percent recovery are calculated as is known in the art. […]
substance,measurement,value
Lucifer yellow,Papp (post-experiment monolayer integrity control),< 8 nm/s
